For data set [1], the target named is T1, Solute carrier organic anion transporter family member 1B3 (Homo sapiens, UniProt Q9NPD5).
T1 sequence (Q9NPD5 whole entry): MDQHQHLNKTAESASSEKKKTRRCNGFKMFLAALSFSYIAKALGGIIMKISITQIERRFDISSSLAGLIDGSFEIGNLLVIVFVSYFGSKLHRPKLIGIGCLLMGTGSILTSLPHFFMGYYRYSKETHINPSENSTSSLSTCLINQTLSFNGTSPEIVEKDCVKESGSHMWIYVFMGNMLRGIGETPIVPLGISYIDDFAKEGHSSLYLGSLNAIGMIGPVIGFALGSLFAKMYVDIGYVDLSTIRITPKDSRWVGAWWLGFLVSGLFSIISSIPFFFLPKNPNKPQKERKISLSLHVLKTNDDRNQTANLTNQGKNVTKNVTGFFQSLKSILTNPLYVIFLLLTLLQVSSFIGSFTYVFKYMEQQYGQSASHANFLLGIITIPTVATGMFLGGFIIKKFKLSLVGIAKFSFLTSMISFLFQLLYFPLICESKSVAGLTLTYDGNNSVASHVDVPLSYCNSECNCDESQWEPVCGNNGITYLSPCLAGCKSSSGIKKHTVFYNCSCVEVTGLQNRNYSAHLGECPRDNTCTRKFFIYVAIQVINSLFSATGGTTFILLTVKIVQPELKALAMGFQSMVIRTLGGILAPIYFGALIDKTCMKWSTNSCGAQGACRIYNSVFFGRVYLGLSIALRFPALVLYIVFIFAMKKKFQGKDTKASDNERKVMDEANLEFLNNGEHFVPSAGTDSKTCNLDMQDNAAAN
The note with it: chinese hamster, cho, 10 µM.

The target in data set [2] is T2, Solute carrier organic anion transporter family member 1B1 (Homo sapiens, UniProt Q9Y6L6).
T2 sequence (Q9Y6L6 whole entry): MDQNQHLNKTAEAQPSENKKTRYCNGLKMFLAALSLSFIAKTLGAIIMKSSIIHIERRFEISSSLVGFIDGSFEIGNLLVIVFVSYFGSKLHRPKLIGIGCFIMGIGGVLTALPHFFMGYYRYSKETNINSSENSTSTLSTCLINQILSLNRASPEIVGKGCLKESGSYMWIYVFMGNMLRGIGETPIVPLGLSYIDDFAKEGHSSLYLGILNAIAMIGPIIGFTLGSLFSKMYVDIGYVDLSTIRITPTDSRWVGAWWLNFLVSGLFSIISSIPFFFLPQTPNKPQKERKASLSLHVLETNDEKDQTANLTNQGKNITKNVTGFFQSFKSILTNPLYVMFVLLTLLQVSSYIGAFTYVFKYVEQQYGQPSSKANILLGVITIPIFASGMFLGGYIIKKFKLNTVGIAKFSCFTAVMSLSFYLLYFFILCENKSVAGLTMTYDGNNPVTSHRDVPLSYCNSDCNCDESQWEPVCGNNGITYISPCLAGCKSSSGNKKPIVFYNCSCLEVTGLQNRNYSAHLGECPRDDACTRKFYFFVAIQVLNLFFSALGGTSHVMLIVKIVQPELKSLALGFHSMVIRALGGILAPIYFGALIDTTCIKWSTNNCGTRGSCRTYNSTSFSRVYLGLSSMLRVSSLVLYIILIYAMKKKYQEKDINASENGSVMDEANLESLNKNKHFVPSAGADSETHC
The settings on record: chinese hamster, cho, 10 µM.

Residues, ends and D or L forms follow the SMILES beside them. *: point of attachment. For = O=C*

The residual activity is the signal under treatment as a percentage of the control signal.

Turning to `Cn1cnc([N+](=O)[O-])c1Sc1ncnc2nc[nH]c12` [AZATHIOPRINE], the residual activity in data set [1] worked out at 107.3%; in data set [2], 128.4%.

As for `C[N+](C)(C)CCO.[Cl-]` [CHOLINE CHLORIDE], the residual activity in data set [1] was found to be 113.2%; in data set [2], 93.68%.

As to `Cc1nnc(NS(=O)(=O)c2ccc(N)cc2)s1` [SULFAMETHIZOLE], the residual activity in data set [1] is given as 100.6%; in data set [2], 89.01%.

For `CCCC1O[C@@H]2C[C@H]3[C@@H]4CCC5=CC(=O)C=C[C@]5(C)[C@H]4[C@@H](O)C[C@]3(C)[C@]2(C(=O)CO)O1` (stereo partly drawn) [BUDESONIDE], the residual activity in data set [1] is 73%; in data set [2] it was 43.76%.

On to `O=C(CCCN1CCC2(CC1)C(=O)NCN2c1ccccc1)c1ccc(F)cc1` [SPIPERONE], for which the residual activity in data set [1] stood at 108.9%; in data set [2] it was 168.8%.

In the case of `CCCOc1ccccc1-c1nc2nn[nH]c2c(=O)[nH]1` [ZAPRINAST], the values for the residual activity in data set [1] and in data set [2] were 86.99% and 98.85%, respectively.

`Cc1ccc(-c2nc3ccc(C)cn3c2CC(=O)N(C)C)cc1` [ZOLPIDEM]: the residual activity worked out at 78.05% in data set [1] and 177.4% in data set [2].

Regarding `COc1cc(N)c(Cl)cc1C(=O)NC1CCN(Cc2ccccc2)CC1.O=C(O)/C=C\C(=O)O` [CLEBOPRIDE MALEATE], the residual activity in data set [1] is reported as 124.4%; in data set [2], 84.15%.

Consider `O=S(=O)([O-])CCS.[Na+]` [MESNA], for which the residual activity in data set [1] was determined as 97.81%; in data set [2] it was 95.36%.

As for `O=C(/C=C/c1ccccc1)c1ccc(O[C@@H]2O[C@H](CO)[C@@H](O)[C@H](O)[C@H]2O)cc1O` [2',4'-DIHYDROXYCHALCONE 4'-GLUCOSIDE], the residual activity in data set [1] stood at 107.4%; in data set [2], 99.51%.

Turning to `NS(=O)(=O)c1cc2c(cc1C(F)(F)F)NCNS2(=O)=O` [HYDROFLUMETHIAZIDE], the residual activity in data set [1] came out at 85.97%; in data set [2] it was 82.22%.

`COc1cc(O)ccc1C(C)=O` [ISOPEONOL]: the residual activity in data set [1] came to 84.87%; in data set [2], 60.41%.

Consider `CC(C)NC[C@@H](O)COc1cccc2ccccc12.Cl` [DEXPROPRANOLOL HYDROCHLORIDE], for which the residual activity in data set [1] was 103.2%; in data set [2], 108.7%.

Turning to `COc1c2occc2cc2ccc(=O)oc12` [METHOXSALEN], the results for the residual activity in data set [1] and in data set [2] were 107.3% and 102.5%, respectively.

On to `O=c1oc2cc(O)ccc2s1` [TIOXOLONE], for which the values for the residual activity in data set [1] and in data set [2] were 76.34% and 67.3%, respectively.

`CC1=C(CC(=O)O)c2cc(F)ccc2/C1=C\c1ccc([S+](C)[O-])cc1` (stereo not drawn): the residual activity in data set [1] is recorded as 88.55%; in data set [2] it was 240.6%.

For the compound `Cc1[nH]c2ccccc2c1CN(C)C` [2-METHYL GRAMINE], the residual activity is listed as 80.09% in data set [1] and 39.17% in data set [2].

For `Cl.c1ccc([C@H]2CN3CCSC3=N2)cc1` [LEVAMISOLE HYDROCHLORIDE], the figures for the residual activity in data set [1] and in data set [2] were 102.9% and 121.8%, respectively.

`CSCC[C@H](NC=O)C(=O)N[C@@H](Cc1ccccc1)C(=O)O` (For-Met-Phe-OH): the residual activity worked out at 104.4% in data set [1] and 38.77% in data set [2].

`COc1ccc(C(Cl)=C(c2ccc(OC)cc2)c2ccc(OC)cc2)cc1` [CHLOROTRIANISENE]: the residual activity was found to be 92.54% in data set [1] and 91.3% in data set [2].

For `CS(=O)(=O)[O-].C[n+]1ccccc1C=NO` [PRALIDOXIME MESYLATE], the residual activity in data set [1] was 98.72%; in data set [2], 73.31%.

Turning to `C=C[C@H]1CN2CC[C@H]1C[C@H]2[C@H](O)c1ccnc2ccccc12` [CINCHONIDINE], the residual activity in data set [1] stood at 111.1%; in data set [2] it was 86.58%.

As for `Nc1nc2ncc(C(=O)O)nc2c(=O)[nH]1` [PTERIN-6-CARBOXYLIC ACID], the residual activity in data set [1] was 99.97%; in data set [2], 102.1%.

For `CC(=O)O[C@H]1C[C@@H](OC(C)=O)C(C)(C)[C@@H]2C[C@@H](OC(C)=O)[C@@]3(C)C4=CC(=O)O[C@@H](c5ccoc5)[C@]4(C)CC[C@@H]3[C@@]12C`, the figures for the residual activity in data set [1] and in data set [2] were 104.2% and 107.2%, respectively.

For the compound `CC(C)CC(N(C)C)C1(c2ccc(Cl)cc2)CCC1.Cl` (stereo not drawn), the residual activity is 113.9% in data set [1] and 96.94% in data set [2].

Consider `C/C=C(/C)C(=O)O[C@@H]1c2c(ccc3ccc(=O)oc23)OC(C)(C)[C@@H]1OC(C)=O` [PTERYXIN], for which the values for the residual activity in data set [1] and in data set [2] were 114.3% and 84.8%, respectively.

Turning to `NC(=O)NC(=O)Cc1ccccc1` [PHENACEMIDE], the residual activity worked out at 104.7% in data set [1] and 93.72% in data set [2].

For `CCCCCCCCCc1ccc(O)cc1` [4-NONYLPHENOL], the residual activity amounted to 184.2% in data set [1] and 140.8% in data set [2].

For `CC(C)C1COc2cc3oc(=O)ccc3cc2O1` (stereo not drawn) [DIHYDRO-OBLIQUIN], the residual activity in data set [1] is listed as 74.86%; in data set [2], 74.37%.

Turning to `CN(C)CCCN1c2ccccc2CCc2ccc(Cl)cc21.Cl` [CLOMIPRAMINE HYDROCHLORIDE], the residual activity is given as 78.81% in data set [1] and 43.58% in data set [2].

For the compound `O=C(O)c1cc(/N=N/c2ccc(S(=O)(=O)Nc3ccccn3)cc2)ccc1O` [SULFASALAZINE], the residual activity is listed as 72.91% in data set [1] and 126.2% in data set [2].

For `CCCNC(=O)NS(=O)(=O)c1ccc(Cl)cc1` [CHLORPROPAMIDE], the residual activity in data set [1] was 102.2%; in data set [2] it was 102%.

In the case of `O=c1c(O)c(-c2ccccc2)oc2cc(O)ccc12` [3,7-DIHYDROXYFLAVONE], the residual activity in data set [1] was determined as 120.8%; in data set [2], 151.5%.

Consider `Cn1c(=O)c2c(ncn2CCCl)n(C)c1=O` [7-CHLOROETHYLTHEOPHYLLINE], for which the residual activity is reported as 97.15% in data set [1] and 90.03% in data set [2].

With `Br.COc1ccc2c(c1)[C@]13CCCC[C@@H]1[C@H](C2)N(C)CC3.O` [DEXTROMETHORPHAN HYDROBROMIDE], the residual activity in data set [1] worked out at 78.21%; in data set [2] it was 49.83%.

On to `O=C(CC(=O)c1ccccc1)c1ccccc1` [DIBENZOYLMETHANE], for which the residual activity in data set [1] worked out at 118.4%; in data set [2], 129.7%.

On to `Nc1ccc(S(=O)(=O)Nc2ccc(Cl)nn2)cc1` [SULFACHLORPYRIDAZINE], for which the residual activity is 95.19% in data set [1] and 134.9% in data set [2].

Consider `C=CCc1cc(OC)c2c(c1OC)OCO2` [APIOL], for which the residual activity in data set [1] turned out to be 107.2%; in data set [2], 213.1%.

Turning to `CC(C)Cc1ccc(C(C)C(=O)O)cc1` (stereo not drawn) [IBUPROFEN], the residual activity in data set [1] is recorded as 98.25%; in data set [2], 111.7%.

Take `COc1ccc2cc3[n+](cc2c1OC)CCc1cc2c(cc1-3)OCO2.[Cl-]` [BERBERINE CHLORIDE]: the residual activity came to 108.4% in data set [1] and 110.4% in data set [2].

Take `Cc1cc(C)cc(OCC2CNC(=O)O2)c1` (stereo not drawn) [METAXALONE]: the residual activity in data set [1] stood at 93.18%; in data set [2] it was 88.21%.

On to `COc1c(-c2ccccc2)oc2c(ccc3occc32)c1=O` [KARANJIN], for which the residual activity in data set [1] came to 124.7%; in data set [2], 50.39%.

Turning to `COc1cc(OC)c2c(c1)O[C@H](c1ccc(OC)c(OC)c1)[C@@H](O)C2`, the results for the residual activity in data set [1] and in data set [2] were 103.7% and 123.7%, respectively.

Consider `CC(C)Nc1nc(Cl)nc(NC(C)C)n1` [PROPAZINE], for which the residual activity in data set [1] amounted to 91.55%; in data set [2], 110.4%.

The values above are taken from ChEMBL document CHEMBL3039007, “Structure-based identification of OATP1B1/3 inhibitors” (Mol Pharmacol, 2013).
